± gives the standard deviation of the averaged measurements.
Experiments:
[1] = compound: CC(=O)NCC(=O)N1[C@@H]2CC[C@H]1c1ccc(Nc3ncc(C(F)(F)F)c(NC4CCC4)n3)cc12; assay: surviving fraction relative to DMSO-only wells; higher = less growth inhibition; conditions: exposure time: 5 days
In short: (§1)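 Tumour cell lines were seeded in log phase at 250–500 cells per well into 384-well plates. Starting 24 hours later, inhibitors were present continuously for five days at 0.5, 1, 5, 10, 50, 100, 500 and 1000 nM. Surviving fraction, from CellTiter-Glo luminescence, is normalised to the median of DMSO-only wells. Three screens per line were required, with replicate Pearson r >0.7 and median Z' >0.3 for a line to be kept.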

[2] = compound: COc1cc2ncnc(Nc3ccc(F)c(Cl)c3)c2cc1OCCCN1CCOCC1 [GEFITINIB]; assay: as above; conditions: exposure time: 5 days
In short: as §1

Test System	surviving fraction ([1]; 0.5 nM)	surviving fraction ([1]; 1 nM)	surviving fraction ([1]; 5 nM)	surviving fraction ([1]; 10 nM)	surviving fraction ([1]; 50 nM)	surviving fraction ([1]; 100 nM)	surviving fraction ([1]; 500 nM)	surviving fraction ([1]; 1000 nM)	surviving fraction ([2]; 0.5 nM)	surviving fraction ([2]; 1 nM)	surviving fraction ([2]; 5 nM)	surviving fraction ([2]; 10 nM)	surviving fraction ([2]; 50 nM)	surviving fraction ([2]; 100 nM)	surviving fraction ([2]; 500 nM)	surviving fraction ([2]; 1000 nM)
HU09 BONE	1.05 ± 0.082	1.01 ± 0.03	1.08 ± 0.075	1.11 ± 0.078	0.67 ± 0.024	0.583 ± 0.011	0.3 ± 0.0061	0.179 ± 0.023	0.997 ± 0.069	0.921 ± 0.055	0.972 ± 0.023	1.02 ± 0.079	1.1 ± 0.018	1.09 ± 0.075	1.1 ± 0.16	0.952 ± 0.1
S68 BREAST	0.875 ± 0.16	0.86 ± 0.083	0.973 ± 0.18	0.946 ± 0.11	0.487 ± 0.057	0.472 ± 0.024	0.529 ± 0.081	0.466 ± 0.13	0.936 ± 0.095	0.744 ± 0.17	1.11 ± 0.34	1.09 ± 0.069	1.11 ± 0.23	0.762 ± 0.093	0.728 ± 0.1	0.687 ± 0.22
CAL51 BREAST	1.01 ± 0.041	0.9652 ± 0.005	0.988 ± 0.032	0.946 ± 0.013	0.675 ± 0.019	0.222 ± 0.0058	0.144 ± 0.0039	0.146 ± 0.009	1.01 ± 0.089	0.995 ± 0.07	1.01 ± 0.015	1 ± 0.036	1.08 ± 0.035	1.02 ± 0.016	1.13 ± 0.015	1.07 ± 0.066
HUO3N1 BONE	1.01 ± 0.064	0.997 ± 0.054	1.01 ± 0.021	1.02 ± 0.036	1.03 ± 0.076	0.972 ± 0.036	0.737 ± 0.064	0.533 ± 0.037	0.977 ± 0.032	0.972 ± 0.053	1.05 ± 0.022	1.04 ± 0.018	1.08 ± 0.044	1.05 ± 0.039	0.991 ± 0.052	0.974 ± 0.052
HMT3552 BREAST	1.16	1.06	1.01	0.934	0.148	0.47	0.121	0.116	0.987 ± 0.065	1 ± 0.052	0.97 ± 0.038	0.952 ± 0.018	0.946 ± 0.048	0.94 ± 0.036	0.94 ± 0.017	0.856 ± 0.043
MDAMB468 BREAST	0.977 ± 0.023	1.04 ± 0.046	1.05 ± 0.026	0.987 ± 0.041	1.03 ± 0.047	0.507 ± 0.047	0.146 ± 0.01	0.151 ± 0.018	1.11 ± 0.097	1.08 ± 0.062	1.14 ± 0.087	1.11 ± 0.02	1.07 ± 0.099	1.028 ± 0.01	0.588 ± 0.026	0.503 ± 0.058
G292 BONE	0.997 ± 0.043	0.968 ± 0.052	0.999 ± 0.025	0.949 ± 0.015	0.59 ± 0.028	0.485 ± 0.017	0.181 ± 0.0022	0.087 ± 0.001	0.976 ± 0.023	1.03 ± 0.045	1.04 ± 0.035	1.059 ± 0.0083	1.03 ± 0.052	1.04 ± 0.04	0.954 ± 0.038	0.9402 ± 0.0094
HS578T BREAST	1 ± 0.016	0.962 ± 0.088	0.918 ± 0.23	0.879 ± 0.027	0.866 ± 0.085	0.721 ± 0.081	0.592 ± 0.071	0.559 ± 0.11	0.972 ± 0.039	0.906 ± 0.078	0.965 ± 0.095	0.878 ± 0.12	0.996 ± 0.13	0.819 ± 0.075	1.07 ± 0.1	0.899 ± 0.23
MDAMB231 BREAST	0.975 ± 0.018	0.98 ± 0.016	0.974 ± 0.011	0.967 ± 0.015	0.706 ± 0.063	0.571 ± 0.027	0.416 ± 0.022	0.337 ± 0.018	0.989 ± 0.026	0.987 ± 0.026	1.02 ± 0.02	1.03 ± 0.024	1.06 ± 0.027	1.06 ± 0.037	1.06 ± 0.018	1.04 ± 0.037
BT20 BREAST	1.03 ± 0.028	0.968 ± 0.062	1.02 ± 0.09	0.87 ± 0.051	0.365 ± 0.054	0.199 ± 0.038	0.293 ± 0.041	0.291 ± 0.055	1.14 ± 0.02	1.19 ± 0.063	1.13 ± 0.11	1.15 ± 0.043	1.06 ± 0.011	1.06 ± 0.013	1.05 ± 0.04	0.984 ± 0.085
SG27 HEADNECK	1.04 ± 0.03	1.05 ± 0.042	0.868 ± 0.14	1.04 ± 0.079	0.948 ± 0.054	0.872 ± 0.043	0.843 ± 0.061	0.919 ± 0.05	1.11 ± 0.041	1.1 ± 0.074	1.03 ± 0.037	1.16 ± 0.12	1.14 ± 0.13	1.12 ± 0.13	1.09 ± 0.024	1.11 ± 0.016
SG28 HEADNECK	1.06 ± 0.12	1.03 ± 0.036	0.972 ± 0.15	0.991 ± 0.13	0.949 ± 0.11	0.828 ± 0.015	0.682 ± 0.048	0.601 ± 0.075	1.14 ± 0.071	1.2 ± 0.037	1.06 ± 0.075	1.03 ± 0.035	0.758 ± 0.069	0.679 ± 0.033	0.501 ± 0.059	0.504 ± 0.016
